We go through one compound from patent US20090111736A1, “Orally-Absorbed Solid Dose Formulation for Vancomycin” (SRI International, priority 2007, published 2009).

Where a name gives a salt, the structure may show the parent alone.

The conditions of data set [1]: cited from earlier work.
The nature of data set [2]: In vitro mucosal-to-serosal vancomycin transport, modified Ussing chambers, duodenum. Format: in vitro ADME, rat. The note with it: male, rat, pH 7.4, 5 mg/ml, HEPES buffer alone. An excerpt:
(§1) We investigated regional variation in permeation of vancomycin (VCM) across various segments of rat intestine and colon in vitro by mounting isolated segments of rat intestine and colon between horizontal modified Ussing chambers. The effects of drug concentration and of addition of a p-glycoprotein inhibitor or permeation enhancer(s) as formulation additives on VCM permeation were also studied in vitro using segments of rat jejunum.
(§2) Methods: A modified Ussing system (Easy mount Ussing system, Physiological Instruments Inc., CA, Item # EM-CSYS-8) with eight sets of chambers was used for all in vitro studies; each set consisted of two parallel diffusion chambers, a heating block for temperature control, needle valves for gas flow adjustment and gas mixing, and Ag/AgCl voltage and current electrodes for measuring transepithelial voltage and for passing current.
(§3) Harvesting of required small intestinal or colon segments of a male rat was performed using experimental procedures described in the literature (Gotoh et al., J Biomol Screen (2005) 10:517-23). The harvested segments of small intestine or colon were mounted on sliders placed between the two horizontal chambers of a modified Ussing system.
(§4) VCM was dissolved in HEPES buffer pH 7.4 (Table 1) previously saturated with 100% O2 or HEPES buffer containing additives selected from permeation enhancer(s) and/or an efflux transport inhibitor (Table 2) to obtain predetermined concentrations of drug and additive(s).
(§5) Drug transport across epithelial membranes of harvested rat small intestine and colon segments, in mucosal-to-serosal (M-to-S) direction, was studied using modified Ussing Chambers. Aliquots of HEPES buffer (5 ml) were initially added to both the mucosal and serosal chambers and allowed to equilibrate for 20 minutes. The HEPES buffer in the mucosal chamber was replaced by a study sample containing VCM alone or VCM and selected additive(s) in HEPES buffer, e.g., 5 mg/mL of VCM dissolved in HEPES buffer containing 10% w/w Labrasol®. Aliquots of 0.5 mL buffer solutions were removed periodically from serosal chambers, and replaced with equal volumes of fresh warm (37±2° C.) HEPES buffer previously saturated with 100% O2. To study the effect of additives in the serosal chamber (i.e., quinidine and sodium decanoate), HEPES buffer containing the selected additive was placed in the serosal chamber and replaced with the same buffer composition during sampling.
(§6) Changes in transepithelial short-circuit current (in micro-Amps) and membrane resistance (in Ohms) as a function of time were monitored continuously during in vitro studies to serve as indicators of tissue viability and drug permeability, respectively. The buffer samples from the receptor chambers were analyzed for VCM content on a high pressure liquid chromatograph (HPLC; Hewlett Packard Model 1100 series).
(§7) The analysis of VCM samples was performed using a reverse phase gradient HPLC method, with a Hypersil BDS C18 column, 5 μm, 150×4.6 mm., mobile phase consisting of 5 mM potassium phosphate monobasic in water (pH 3) as solvent A and acetonitrile as solvent B at a flow rate of 1 ml/min (Farin et al., J Pharm Biomed Anal (1998) 18:367-72). The eluant was monitored by a UV/diode array detector at 280 nm.
(§8) To compare data obtained from different in vitro experiments, the apparent permeability coefficients were calculated using the equation: […]
(§9) Where dQ/dt is the linear appearance rate of mass in receiver compartment, C0 is the initial solute concentration in donor compartment, and A is the surface area (Luo et al., Drug Metab Dispos (2002) 30:763-70).

Data set [3] deals with rat duodenum. Described as above. Type of data set: in vitro ADME. The note with it: 5 mg/ml vancomycin in HEPES buffer.
From the text: as §1, §2, §3, §4, §5, §6, §7, §8, §9

Data set [4] is described as follows: In vitro mucosal-to-serosal vancomycin transport, modified Ussing chambers, colon. Type of data set: in vitro ADME, rat. The settings on record: male, rat, pH 7.4, 5 mg/ml, HEPES buffer alone.
From the text: as §1, §2, §3, §4, §5, §6, §7, §8, §9

Data set [5] concerns rat colon. Described as above. Type of data set: in vitro ADME. The note with it: 5 mg/ml vancomycin in HEPES buffer.
From the text: as §1, §2, §3, §4, §5, §6, §7, §8, §9

Data set [6] relates to rat ileum. Briefly: In vitro mucosal-to-serosal vancomycin transport, modified Ussing chambers, ileum. Format: in vitro ADME. The settings on record: 5 mg/ml vancomycin in HEPES buffer.
From the text: as §1, §2, §3, §4, §5, §6, §7, §8, §9

Assay in data set [7]: as above
Type of data set: in vitro ADME, rat. The settings on record: male, rat, pH 7.4, 5 mg/ml, HEPES buffer alone.
From the text: as §1, §2, §3, §4, §5, §6, §7, §8, §9

Regarding `CN[C@H](CC(C)C)C(=O)N[C@H]1C(=O)N[C@@H](CC(N)=O)C(=O)N[C@H]2C(=O)N[C@H]3C(=O)N[C@H](C(=O)N[C@H](C(=O)O)c4cc(O)cc(O)c4-c4cc3ccc4O)[C@H](O)c3ccc(c(Cl)c3)Oc3cc2cc(c3O[C@@H]2O[C@H](CO)[C@@H](O)[C@H](O)[C@H]2O[C@H]2C[C@](C)(N)[C@H](O)[C@H](C)O2)Oc2ccc(cc2Cl)[C@H]1O` [Vancomycin hydrochloride], in data set [1], the solubility in water result is “soluble in water”. The Papp at 2.5 hr, 5 mg/ml was found to be 0.2 ± 0.05 ×10⁻⁶ cm/s in data set [2], 0.41 ± 0.07 ×10⁻⁶ cm/s in data set [4] and 0.38 ± 0.05 ×10⁻⁶ cm/s in data set [7]. In addition, the “Ave. Cumulative Amt VCM Released” value was 0.00 ± 0.00 µg in data set [3] (0.5 hr); 0.00 ± 0.00 µg in data set [3] (1.0 hr); 0.40 ± 0.80 µg in data set [3] (1.5 hr); 2.08 ± 0.87 µg in data set [3] (2.0 hr); 3.51 ± 1.34 µg in data set [3] (2.5 hr); 0.00 ± 0.00 µg in data set [5] (0.5 hr). For the same compound, the “Ave. Cumulative Amt VCM Released” value came to 0.00 ± 0.00 µg in data set [5] (1.0 hr); 1.93 ± 0.38 µg in data set [5] (1.5 hr); 4.20 ± 0.99 µg in data set [5] (2.0 hr); 7.15 ± 1.82 µg in data set [5] (2.5 hr); 0.00 ± 0.00 µg in data set [6] (0.5 hr); 0.00 ± 0.00 µg in data set [6] (1.0 hr). Further, the “Ave. Cumulative Amt VCM Released” value in data set [6] (1.5 hr) was determined as 2.55 ± 0.67 µg; in data set [6] (2.0 hr) it was 4.31 ± 1.17 µg; in data set [6] (2.5 hr), 6.33 ± 1.66 µg.

The Papp is a coefficient for how fast a substance crosses the barrier. A low value points to slow passage.
